Data taken from US8497263B2, “Pyrrolinone derivative and pharmaceutical composition comprising the same” (Shionogi & Co., Ltd., priority 2007, dated 2013).

Row | melting point | SMILES
1 | 268 to 270 °C (dec.) | COc1ccc(C(=O)C2=C(O)C(=O)N(c3ccc(-c4ccon4)cc3)C2c2ccc(Cl)cc2)cc1 (stereo not drawn) [Example I-11]
2 | 236 to 239 °C | COc1ccc(C(=O)C2=C(O)C(=O)N(c3ccc(-c4noc(C)n4)cc3)C2c2ccc(F)cc2)cc1 (stereo not drawn) [Example I-14]
3 | 269 to 274 °C (dec.) | COc1ccc(C(=O)C2C(=O)C(=O)N(c3ccc(-c4ccon4)cc3)C2c2ccc(F)cc2)cc1 (stereo not drawn) [Example I-18]
4 | 273 to 274 °C (dec.) | COc1ccc(C(=O)C2=C(O)C(=O)N(c3ccc(-c4ccon4)cc3)C2c2cccc(F)c2)cc1 (stereo not drawn) [Example I-26, 5-(3-fluorophenyl)-3-hydroxy-1-(4-isoxazol-3-ylphenyl)-4-(4-methoxybenzoyl)-1,5-dihydropyrrol-2-one]
5 | 238 to 240 °C | COc1ccc(C(=O)C2=C(O)C(=O)N(c3ccc(-c4ccon4)cc3)C2c2cccc(Cl)c2)cc1 (stereo not drawn) [Example I-27]
6 | 270 to 271 °C (dec.) | COc1ccc(C(=O)C2=C(O)C(=O)N(c3ccc(-c4ccon4)cc3)C2c2ccccc2F)cc1 (stereo not drawn) [Example I-31]
7 | 259 to 260 °C | CC(C)(C)C(=O)C1=C(O)C(=O)N(c2ccc(-c3ccon3)cc2)C1C1CCCCC1 (stereo not drawn) [Example I-32, 5-cyclohexyl-4-(2,2-dimethylpropionoyl)-3-hydroxy-1-(4-isoxazol-3-ylphenyl)-1,5-dihydropyrrol-2-one]
8 | 253 to 256 °C (dec.) | COc1ccc(C(=O)C2=C(O)C(=O)N(c3ccc(C(F)(F)F)cc3)C2c2ccc(F)cc2)cc1 (stereo not drawn) [Example I-34]
9 | 254 to 258 °C (dec.) | COc1ccc(C(=O)C2C(=O)C(=O)N(c3ccc(-c4ccon4)cc3)C2c2ccccc2Cl)cc1 (stereo not drawn) [Example I-40]
10 | 238 to 240 °C | COc1ccc(C(=O)C2=C(O)C(=O)N(c3ccc(-c4ccon4)cc3)C2c2cccc(OC)c2)cc1 (stereo not drawn) [Example I-46]
11 | 271 to 274 °C | COc1ccc(C(=O)C2=C(O)C(=O)N(c3ccc(-c4ccon4)cc3)C2c2ccccc2)cc1 (stereo not drawn) [Example I-50]
12 | 238 to 239 °C | CC(C)(C)C(=O)C1=C(O)C(=O)N(c2ccc(C(F)(F)F)cc2)C1C1CCCCC1 (stereo not drawn) [Example I-56]
13 | 245 to 246 °C | COc1ccc(C(=O)C2C(=O)C(=O)N(c3ccc(-c4cnco4)cc3)C2c2ccc(F)cc2)cc1 (stereo not drawn) [Example I-64]
14 | 245 to 247 °C | COc1ccc(C(=O)C2C(=O)C(=O)N(c3ccc(OC)cc3)C2c2ccc(F)cc2)cc1 (stereo not drawn) [Example I-73]
15 | 253 to 254 °C | COc1ccc(C(=O)C2C(=O)C(=O)N(c3ccc(-c4cnco4)cc3)C2c2ccccc2)cc1 (stereo not drawn) [Example I-78]
16 | 268 to 271 °C | COc1ccc(C(=O)C2=C(O)C(=O)N(c3ccc(C(=O)O)cc3)C2c2ccccc2)cc1 (stereo not drawn) [Example I-87]
17 | 193 to 196 °C | COc1ccc(C(=O)C2=C(O)C(=O)N(c3cccc(-c4ccon4)c3)C2c2ccc(F)cc2)cc1 (stereo not drawn) [Example I-185]
18 | 255 to 256 °C | CC(C)(C)C(=O)C1/C(=N/O)C(=O)N(c2ccc(-c3ccon3)cc2)C1C1CCCCC1 (stereo not drawn) [Example I-193]
19 | 245 to 246 °C | CC(C)(C)c1n[nH]c2c1C(C1CCCCC1)N(c1ccc(C(F)(F)F)cc1)C2=O (stereo not drawn) [Example I-194]
20 | > 290 °C | CCC(CC)C1c2c(-c3ccc(=O)[nH]c3)n[nH]c2C(=O)N1c1ccc(-c2ccon2)cc1 (stereo not drawn) [Example I-198, 4-(1-ethylpropyl)-5-(4-isoxazol-3-ylphenyl)-3-(6-oxo-1,6-dihydropyridin-3-yl)-4,5-dihydro-1H-pyrrolo[3,4-c]pyrazol-6-one]
21 | 177 to 178 °C | COc1ccc(C2C(Cc3ccccc3)=C(O)C(=O)N2c2ccc(F)cc2)cc1 (stereo not drawn) [Example I-202]
22 | 160 to 161 °C | CCOC(=O)c1ccc(N2C(=O)C(O)=C(Cc3ccccc3)C2c2ccc(OC)cc2)cc1 (stereo not drawn) [Example I-203]
23 | 234 to 237 °C | COc1ccc(C(=O)C2=C(O)C(=O)N(Cc3ccc(C(F)(F)F)cc3)C2c2ccc(F)cc2)cc1 (stereo not drawn) [Example I-204]
24 | 246 to 249 °C | CCC(CC)C1C(C(=O)c2ccc(OC)nc2)=C(O)C(=O)N1c1ccc(-c2ccon2)cc1 (stereo not drawn) [Example I-207]
25 | > 290 °C | CCC(CC)C1C(C(=O)c2ccc(=O)[nH]c2)=C(O)C(=O)N1c1ccc(-c2ccon2)cc1 (stereo not drawn) [Example I-208]
26 | 232 to 235 °C | CO/N=C/c1ccc(N2C(=O)C(O)=C(C(=O)c3ccc(OC)cc3)C2c2ccc(F)cc2)cc1 (stereo not drawn) [Example I-209]
27 | 164 to 166 °C | COc1ccc(-c2n[nH]c3c2C(c2ccc(F)cc2)N(c2ccc(-c4ccon4)cc2)C3=O)cc1 (stereo not drawn) [Example I-210]

Row | melting point | SMILES
28 | 226 to 228 °C | CCC(CC)C1c2c(-c3ccc(OC)nc3)n[nH]c2C(=O)N1c1ccc(-c2ccon2)cc1 (stereo not drawn) [Example I-211]
29 | 244 to 247 °C | COc1ccc(C(=O)C2=C(O)C(=O)N(c3ccc(-c4nnco4)cc3)C2c2ccc(F)cc2)cc1 (stereo not drawn) [Example I-213]
30 | 227 to 232 °C | CCCC(C)C1C(C(=O)c2ccc(OC)cc2)=C(O)C(=O)N1c1ccc(-c2ccon2)cc1 (stereo not drawn) [Example I-214]
31 | 207 to 210 °C | CCCCC(CCCC)C1C(C(=O)c2ccc(OC)cc2)=C(O)C(=O)N1c1ccc(-c2ccon2)cc1 (stereo not drawn) [Example I-215]
32 | 229 to 232 °C | COc1ccc(C(=O)C2=C(O)C(=O)N(c3ccc(C4=NCCS4)cc3)C2c2ccc(F)cc2)cc1 (stereo not drawn) [Example I-216]
33 | 173 to 174 °C | COc1ccc(C(=O)C2=C(OCc3ccccc3)C(=O)N(c3ccc(C(F)(F)F)cc3)C2c2ccccc2)cc1 (stereo not drawn) [Example I-217]
34 | 249 to 252 °C | COc1ccc(C(=O)C2=C(O)C(=O)N(c3ccc(-c4cc(C)no4)cc3)C2c2ccc(F)cc2)cc1 (stereo not drawn) [Example I-219]
35 | 229 to 231 °C | CCCC(CCC)C1C(C(=O)c2ccc(OC)cc2)=C(O)C(=O)N1c1ccc(-c2ccon2)cc1 (stereo not drawn) [Example I-220]
36 | 241 to 244 °C | COc1ccc(C(=O)C2=C(O)C(=O)N(c3ccc(-c4ccon4)cc3)C2C(C)c2ccccc2)cc1 (stereo not drawn) [Example I-221]
37 | 247 to 249 °C | COc1ccc(C(=O)C2=C(O)C(=O)N(c3ccc(-c4ccon4)cc3)C2C2CCN(C(=O)OC(C)(C)C)CC2)cc1 (stereo not drawn) [Example I-222]
38 | 268 to 272 °C | COc1ccc(C(=O)C2=C(O)C(=O)N(c3ccc(-c4ccon4)cc3)C2C2CCOCC2)cc1 (stereo not drawn) [Example I-224]
39 | 196 to 201 °C | CCOC(=O)c1ccc(N2C(=O)C(OCc3ccccc3)=C(C(=NO)c3ccc(OC)cc3)C2c2ccccc2)cc1 (stereo not drawn) [Example I-225]
40 | 219 to 221 °C (dec.) | CCOC(=O)c1ccc(N2C(=O)/C(=N\O)C(/C(=N\O)c3ccc(OC)cc3)C2c2ccccc2)cc1 (stereo not drawn) [Example I-226]
41 | 221 to 224 °C | CO/N=C(\C)c1ccc(N2C(=O)C(O)=C(C(=O)c3ccc(OC)cc3)C2c2ccc(F)cc2)cc1 (stereo not drawn) [Example I-227]
42 | 217 to 218 °C | COc1ccc(-c2n[nH]c3c2C(c2ccc(F)cc2)N(c2ccc(C(F)(F)F)cc2)C3=O)cc1 (stereo not drawn) [Example I-228]
43 | 213 to 215 °C | COc1ccc(C2=NCCNC3=C2C(c2ccc(F)cc2)N(c2ccc(C(F)(F)F)cc2)C3=O)cc1 (stereo not drawn) [Example I-229]
44 | 229 to 230 °C | CC(C)(C)C1=NCCNC2=C1C(C1CCCCC1)N(c1ccc(-c3ccon3)cc1)C2=O (stereo not drawn) [Example I-230]
45 | 245 to 248 °C | COc1ccc(C(=O)C2=C(O)C(=O)N(c3ccc(-c4noc(C)n4)cc3)C2C2CCCCC2)cc1 (stereo not drawn) [Example I-231]
46 | 223 to 225 °C | CCC(CC)C1C(C(=O)c2ccc(OC)cc2)=C(O)C(=O)N1c1ccc(-c2noc(C)n2)cc1 (stereo not drawn) [Example I-232]
47 | 247 to 250 °C | COc1ccc(C(=O)C2=C(O)C(=O)N(c3ccc(C4=NCCS4)cc3)C2C2CCCCC2)cc1 (stereo not drawn) [Example I-233]
48 | 230 to 233 °C | CCC(CC)C1C(C(=O)c2ccc(OC)cc2)=C(O)C(=O)N1c1ccc(C2=NCCS2)cc1 (stereo not drawn) [Example I-234]
49 | 232 to 234 °C | COc1ccc(C(=O)C2=C(O)C(=O)N(c3ccc(-c4ccon4)cc3)C2c2ccccn2)cc1 (stereo not drawn) [Example I-236]
50 | 233 to 236 °C | COc1ccc(C(=O)C2=C(O)C(=O)N(c3ccc(Br)cc3)C2c2ccccc2)cc1 (stereo not drawn) [Example I-237]
51 | 245 to 247 °C | COc1ccc(C(=O)C2=C(O)C(=O)N(c3ccc(OC)cc3)C2c2ccc(F)cc2)cc1 (stereo not drawn) [Example I-238]
52 | 197 to 204 °C | COc1ccc(C(=NO)C2=C(OCc3ccccc3)C(=O)N(c3ccc(C(F)(F)F)cc3)C2c2ccccc2)cc1 (stereo not drawn) [Example I-250]
53 | 202 °C | COc1ccccc1C1c2c(C(C)(C)C)n[nH]c2C(=O)N1c1cccc(-c2ccon2)c1 (stereo not drawn) [II-8]
54 | 136 to 137 °C | COC1=C(C(=O)C(C)(C)C)C(c2ccccc2OC)N(c2ccc(-c3ccon3)cc2)C1=O (stereo not drawn) [II-156]
